According to patent publication US7501429B2, “Pyrimidine compounds as anti-ictogenic and/or anti-epileptogenic agents” (Queen's University at Kingston, priority 2001, dated 2009):

Tested on: pilocarpine induced-seizures
Test: Pilocarpine induced-seizure (PIS) model
Type: in vivo
Settings: uracils in the Pilocarpine model; scale maximum = 4
Description: Pilocarpine Induced-seizure (PIS) Model
All test compounds are normally dissolved in a mixture of saline (NaCl 0.9% by mass) and 10% DMSO. However, in case of solubility problems, the concentration of DMSO may be increased to a maximum of 50%. This biological test is performed following the procedure disclosed in PCT publication WO 98/40055 (Queen's University at Kingston).

| SMILES | Relative Activity (Maximum = 4) |
| --- | --- |
| Nc1c(C(=O)O)[nH]c(=O)[nH]c1=O [Compound P10, 5-amino-2,6-dioxo-1,2,3,6-tetrahydro-pyrimidine-4-carboxylic acid] | Minimally Active |
| CCCCc1cc2c[nH]c(=O)nc2o1 [Compound P17, 6-butyl-3H-furo[2,3-d]pyrimidin-2-one] | Active - +1 |
| O=c1ccn(CCCO)c(=O)n1CCCO [Compound P37, 1,3-bis-(3-hydroxy-propyl)-1H-pyrimidine-2,4-dione] | Active +2 |
| Cc1cn(C2CC(O)C(CO)O2)c(=O)[nH]c1=O (stereo not drawn) [Compound P19, 1-(4-hydroxy-5-hydroxymethyl-tetrahydro-furan-2-yl)-5-methyl-1H-pyrimidine-2,4-dione] | Minimally Active |
| Cn1ccc(=O)n(C)c1=O [Compound P35, 1,3-dimethyl-1H-pyrimidine-2,4-dione] | Active +3 |
| CCC(C)n1cc(Br)c(=O)[nH]c1=O (stereo not drawn) [Compound P20, 5-bromo-1-sec-butyl-1H-pyrimidine-2,4-dione] | Active - +1 |
| O=c1[nH]cc(I)c(=O)[nH]1 [Compound P6, 5-iodo-1H-pyrimidine-2,4-dione] | Active - +1 |
| Cn1cc([N+](=O)[O-])c(=O)n(C)c1=O [Compound P13, 1,3-dimethyl-5-nitro-1H-pyrimidine-2,4-dione] | Minimally Active |
| O=c1[nH]c(=O)n(Cc2ccccc2)cc1I [Compound P32, 1-benzyl-5-iodo-1H-pyrimidine-2,4-dione] | Active +1 |
| O=c1[nH]cc(O)c(=O)[nH]1 [Compound P4, 5-hydroxy-1H-pyrimidine-2,4-dione] | Active - +2 |
| O=c1ccn(Cc2ccccc2)c(=O)[nH]1 [Compound P26, 1-benzyl-1H-pyrimidine-2,4-dione] | Active - +2 |
| O=c1[nH]cc(Br)c(=O)[nH]1 [Compound P5, 5-bromo-1H-pyrimidine-2,4-dione] | Active - +1 |
| O=c1cc[nH]c(=O)[nH]1 [Compound P1, 1H-pyrimidine-2,4-dione] | Active - +2 |
| O=c1c(Br)cn(CC2CCCCC2)c(=O)n1CC1CCCCC1 [Compound P24, 5-bromo-1,3-bis-cyclohexylmethyl-1H-pyrimidine-2,4-dione] | Minimally Active |
| O=c1[nH]c(=O)n(Cc2ccccc2)cc1Br [Compound P22, 1-benzyl-5-bromo-1H-pyrimidine-2,4-dione] | Active - +1 |
| NN1C(=O)CCN(Cc2ccccc2)C1=O [Compound P38, 3-amino-1-benzyl-dihydro-pyrimidine-2,4-dione] | Active +2 |
| CC(C)n1ccc(=O)n(C(C)C)c1=O [Compound P36, 1,3-diisopropyl-1H-pyrimidine-2,4-dione] | Active +2 |
| CC1CC(=O)N(N)C(=O)N1Cc1ccccc1 (stereo not drawn) [Compound P39, 3-amino-1-benzyl-6-methyl-dihydro-pyrimidine-2,4-dione] | Active +3 |

| SMILES | Relative Activity (Maximum = 4) |
| --- | --- |
| CSCc1c[nH]c(=O)[nH]c1=O [Compound P31, 5-methylsulfanylmethyl-1H-pyrimidine-2,4-dione] | Minimally Active |
| Cc1cc(=O)[nH]c(=O)n1Cc1ccccc1 [Compound P27, 1-benzyl-6-methyl-1H-pyrimidine-2,4-dione] | Active - +2 |
| O=c1[nH]cc(CO)c(=O)[nH]1 [Compound P3, 5-hydroxymethyl-1H-pyrimidine-2,4-dione] | Active - +3 |
| Cc1c[nH]c(=O)[nH]c1=O [Compound P2, 5-methyl-1H-pyrimidine-2,4-dione] | Active - +2 |
| NC(=O)c1cnn(-c2cccc(N)c2)c1 [Compound P42, 1-(3-amino-phenyl)-1H-pyrazole-4-carboxylic acid amide] | Active +2 |
| Cc1cc(=O)[nH]c(=O)[nH]1 [Compound P7, 6-methyl-1H-pyrimidine-2,4-dione] | Active - +3 |
| Cc1[nH]c(=O)[nH]c(=O)c1[N+](=O)[O-] [Compound P9, 6-methyl-5-nitro-1H-pyrimidine-2,4-dione] | Active - +2 |
| Cc1[nH]c(=O)[nH]c(=O)c1C [Compound P14, 5,6-dimethyl-1H-pyrimidine-2,4-dione] | Active - +2 |
| Cc1cc(=O)n(Cc2ccc([N+](=O)[O-])cc2)c(=O)n1Cc1ccc([N+](=O)[O-])cc1 [Compound P33, 6-methyl-1,3-bis-(4-nitro-benzyl)-1H-pyrimidine-2,4-dione] | Active +2 |
| Cn1ccc(=O)[nH]c1=O [Compound P34, 1-methyl-1H-pyrimidine-2,4-dione] | Minimally Active |
| O=c1[nH]c(=O)n(CC2CCCCC2)cc1Br [Compound P23, 5-bromo-1-cyclohexylmethyl-1H-pyrimidine-2,4-dione] | Minimally Active |
| O=C(O)c1cc(=O)[nH]c(=O)[nH]1 [Compound P11, 2,6-dioxo-1,2,3,6-tetrahydro-pyrimidine-4-carboxylic acid] | Active - +2 |
| CC(C)n1cc(Br)c(=O)[nH]c1=O [Compound P21, 5-bromo-1-isopropyl-1H-pyrimidine-2,4-dione] | Active - +1 |
| CCCCC#Cc1c[nH]c(=O)[nH]c1=O [Compound P18, 5-hex-1-ynyl-1H-pyrimidine-2,4-dione] | Active - +1 |
| Cc1[nH]c(=O)[nH]c(=O)c1Br [Compound P8, 5-bromo-6-methyl-1H-pyrimidine-2,4-dione] | Active - +2 |
| O=c1c(Cc2cn(Cc3ccccc3)c(=O)n(Cc3ccccc3)c2=O)cn(Cc2ccccc2)c(=O)n1Cc1ccccc1 [Compound P43] | Active +3 |
| O=c1c(Br)cn(Cc2ccc([N+](=O)[O-])cc2)c(=O)n1Cc1ccc([N+](=O)[O-])cc1 [Compound P25, 5-bromo-1,3-bis-(4-nitro-benzyl)-1H-pyrimidine-2,4-dione] | Active - +2 |
| O=C(O)c1c[nH]c(=O)[nH]c1=O [Compound P12, 2,4-dioxo-1,2,3,4-tetrahydro-pyrimidine-5-carboxylic acid] | Active - +2 |
